From patent US20040086901A1, “Database for analyzing gene function and method of analyzing gene function by dspa” (priority 2000, published 2004)

Tests used:
Format in all cases: cell-based, mouse
[1] = tested on: NIH3T3 cells overexpressing Ki-ras; assay: MTT cell viability, Ki-ras overexpressing cells vs parental line; conditions: Ki-ras high-expressing cells / parental cell line, 3 to 4 days
Description: (§1) With regard to the function-known genes, the genes shown in the left column of Table 2 were used. With regard to the drugs, those shown in Table 1 were dissolved in DMSO to an extent of 100-fold of the maximum concentration for the search of the drugs and used. With regard to the cells, incubated NIH3T3 or ras-NIH3T3 cells were used.
(§2) Full-length cDNA of each function-known genes was incorporated into an expression vector (pRc-CMV, etc.) and transfected into NIH3T3 cells by a common method. Transformed cells were isolated using the resistance to G-418 as an index and the expression of the transfected gene in each cell was investigated by Western blotting method to select a highly expressing line.
(§3) Cell viabilities were measured according to the following procedures.
(§4) 1) From the 2nd to the 11th rows of a 96-well plate were filled with DMEM (50 μl). The 12th row was filled with 100 μl of DMEM.
(§5) 2) The 1st row was filled with 98 μl of DMEM.
(§6) 3) Drugs (2 μl each) were added into the 1st row.
(§7) 4) Continuous double-dilution was conducted from the 1st to the 9th rows. Fifty μl were taken out from the 9th row and discarded. The plate was preserved in a CO2 incubator.
(§8) 5) Cells (each high-expressing cells and the parental cell line) were detached from the medium using a trypsin solution, suspended in 10% CS-DMEM and transferred to a test tube and cell numbers (cell/ml) were counted.
(§9) 6) The cells were diluted to a concentration of 1×10^5 cells/ml, and 50 μl of the cell suspension were added to the 1st to the 11th rows of the plate followed by gently stirring.
(§10) 7) The plate was transferred to the CO2 incubator and incubated for 3 to 4 days.
(§11) 8) MTT (5 mg/ml in PBS) (10 μl) was added to the 1st to the 12th rows of the plate and incubated in the CO2 incubator at 37° C. for 4 hours.
(§12) 9) A reaction stop solution (0.04N HCl in isopropanol) (150 μl) was added followed by mixing well and being allowed to stand at room temperature for about 2 hours.
(§13) 10) Coloration of formazan which was a metabolite of the MTT dye was measured using a microplate reader. The measurement wavelength was 574 nm and the reference wavelength was 655 nm. The 10th and the 11th rows of the plate were 100% controls and the 12th row was a 0% control.
(§14) As an index for the sensitivity of highly gene-expressing cells and the parental cell line to various drugs, each of the IC40 values thereof was specified and ratios of the IC40 values were calculated. FIG. 2 and FIG. 3 are the examples where ratios of IC40 values were calculated from a curve showing the dependency on the concentration of the chemical versus the viability. After that, logarithmic values of ratios of IC40 values were calculated from each gene.

[2] = tested on: NIH3T3 cells overexpressing N-ras; assay: MTT cell viability, N-ras overexpressing cells vs parental line; conditions: N-ras high-expressing cells / parental cell line, 3 to 4 days
Description: as §1, §2, §3, §4, §5, §6, §7, §8, §9, §10, §11, §12, §13, §14

[3] = tested on: NIH3T3 cells overexpressing erbB2; assay: MTT cell viability, erbB2 overexpressing cells vs parental line; conditions: erbB2 high-expressing cells / parental cell line, 3 to 4 days
Description: as §1, §2, §3, §4, §5, §6, §7, §8, §9, §10, §11, §12, §13, §14

[4] = tested on: NIH3T3 cells overexpressing p16/INK4A; assay: MTT cell viability, p16/INK4A overexpressing cells vs parental line; conditions: p16/INK4A high-expressing cells / parental cell line, 3 to 4 days
Description: as §1, §2, §3, §4, §5, §6, §7, §8, §9, §10, §11, §12, §13, §14

[5] = tested on: NIH3T3 cells overexpressing Bax; assay: MTT cell viability, Bax overexpressing cells vs parental line; conditions: 3 to 4 days
Description: as §1, §2, §3, §4, §5, §6, §7, §8, §9, §10, §11, §12, §13
(§15) As an index for the sensitivity of highly gene-expressing cells and the parental cell line to various drugs, each of the IC40 values thereof was specified and ratios of the IC40 values were calculated. […] After that, logarithmic values of ratios of IC40 values were calculated from each gene.

[6] = tested on: NIH3T3 cells overexpressing cAMP-PK-CS; assay: MTT cell viability, cAMP-PK-CS overexpressing cells vs parental line; conditions: cAMP-PK-CS high-expressing cells / parental cell line, 3 to 4 days
Description: as §1, §2, §3, §4, §5, §6, §7, §8, §9, §10, §11, §12, §13, §15

[7] = tested on: NIH3T3 cells overexpressing calpastatin; assay: MTT cell viability, calpastatin overexpressing cells vs parental line; conditions: calpastatin high-expressing cells / parental cell line, 3 to 4 days
Description: as §1, §2, §3, §4, §5, §6, §7, §8, §9, §10, §11, §12, §13, §14

[8] = tested on: NIH3T3 cells overexpressing Regucalcin; assay: MTT cell viability, Regucalcin overexpressing cells vs parental line; conditions: Regucalcin high-expressing cells / parental cell line, 3 to 4 days
Description: as §1, §2, §3, §4, §5, §6, §7, §8, §9, §10, §11, §12, §13, §14

[9] = tested on: NIH3T3 cells overexpressing cystatin E; assay: MTT cell viability, cystatin E overexpressing cells vs parental line; conditions: cystatin E high-expressing cells / parental cell line, 3 to 4 days
Description: as §1, §2, §3, §4, §5, §6, §7, §8, §9, §10, §11, §12, §13, §14

[10] = tested on: NIH3T3 cells overexpressing caspase-1; assay: MTT cell viability, caspase-1 overexpressing cells vs parental line; conditions: caspase-1 high-expressing cells / parental cell line, 3 to 4 days
Description: as §1, §2, §3, §4, §5, §6, §7, §8, §9, §10, §11, §12, §13, §15

[11] = tested on: NIH3T3 cells overexpressing caspase-2; assay: MTT cell viability, caspase-2 overexpressing cells vs parental line; conditions: caspase-2 high-expressing cells / parental cell line, 3 to 4 days
Description: as §1, §2, §3, §4, §5, §6, §7, §8, §9, §10, §11, §12, §13, §14

[12] = tested on: NIH3T3 cells overexpressing RhoA; assay: MTT cell viability, RhoA overexpressing cells vs parental line; conditions: RhoA high-expressing cells / parental cell line, 3 to 4 days
Description: as §1, §2, §3, §4, §5, §6, §7, §8, §9, §10, §11, §12, §13, §14

[13] = tested on: NIH3T3 cells overexpressing CBP8; assay: MTT cell viability, CBP8 overexpressing cells vs parental line; conditions: CBP8 high-expressing cells / parental cell line, 3 to 4 days
Description: as §1, §2, §3, §4, §5, §6, §7, §8, §9, §10, §11, §12, §13, §14

[14] = tested on: NIH3T3 cells, TPA (PKC downreg); assay: MTT cell viability, TPA (PKC downreg) cells vs parental line; conditions: 3 to 4 days
Description: as §1, §2, §3, §4, §5, §6, §7, §8, §9, §10, §11, §12, §13, §14

[15] = tested on: NIH3T3 cells overexpressing CaMKIIa; assay: MTT cell viability, CaMKIIa overexpressing cells vs parental line; conditions: CaMKIIa high-expressing cells / parental cell line, 3 to 4 days
Description: as §1, §2, §3, §4, §5, §6, §7, §8, §9, §10, §11, §12, §13, §15

[16] = tested on: NIH3T3 cells overexpressing HNF4; assay: MTT cell viability, HNF4 overexpressing cells vs parental line; conditions: HNF4 high-expressing cells / parental cell line, 3 to 4 days
Description: as §1, §2, §3, §4, §5, §6, §7, §8, §9, §10, §11, §12, §13, §15

[17] = tested on: NIH3T3 cells overexpressing p33/ING1; assay: MTT cell viability, p33/ING1 overexpressing cells vs parental line; conditions: p33/ING1 high-expressing cells / parental cell line, 3 to 4 days
Description: as §1, §2, §3, §4, §5, §6, §7, §8, §9, §10, §11, §12, §13, §14

[18] = tested on: NIH3T3 cells overexpressing caspase-3; assay: MTT cell viability, caspase-3 overexpressing cells vs parental line; conditions: caspase-3 high-expressing cells / parental cell line, 3 to 4 days
Description: as §1, §2, §3, §4, §5, §6, §7, §8, §9, §10, §11, §12, §13, §15

[19] = tested on: NIH3T3 cells overexpressing STAT1; assay: MTT cell viability, STAT1 overexpressing cells vs parental line; conditions: STAT1 high-expressing cells / parental cell line, 3 to 4 days
Description: as §1, §2, §3, §4, §5, §6, §7, §8, §9, §10, §11, §12, §13, §15

[20] = tested on: NIH3T3 cells overexpressing HNF3b; assay: MTT cell viability, HNF3b overexpressing cells vs parental line; conditions: HNF3b high-expressing cells / parental cell line, 3 to 4 days
Description: as §1, §2, §3, §4, §5, §6, §7, §8, §9, §10, §11, §12, §13, §15

[21] = Bax (first of two Bax lines) high-expressing cells / parental cell line
[22] = Bax (second of two Bax lines) high-expressing cells / parental cell line

| SMILES | logarithmic value of ratio of IC40 values [1] | logarithmic value of ratio of IC40 values [2] | logarithmic value of ratio of IC40 values [3] | logarithmic value of ratio of IC40 values [4] | logarithmic value of ratio of IC40 values [5, 21] | logarithmic value of ratio of IC40 values [6] | logarithmic value of ratio of IC40 values [7] | logarithmic value of ratio of IC40 values [8] | logarithmic value of ratio of IC40 values [9] | logarithmic value of ratio of IC40 values [10] | logarithmic value of ratio of IC40 values [11] | logarithmic value of ratio of IC40 values [12] | logarithmic value of ratio of IC40 values [13] | logarithmic value of ratio of IC40 values [14] | logarithmic value of ratio of IC40 values [15] | logarithmic value of ratio of IC40 values [16] | logarithmic value of ratio of IC40 values [17] | logarithmic value of ratio of IC40 values [18] | logarithmic value of ratio of IC40 values [19] | logarithmic value of ratio of IC40 values [20] | also measured |
| --- | --- | --- | --- | --- | --- | --- | --- | --- | --- | --- | --- | --- | --- | --- | --- | --- | --- | --- | --- | --- | --- |
| CN[C@@H]1C[C@H]2O[C@@](C)([C@@H]1OC)n1c3ccccc3c3c4c(c5c6ccccc6n2c5c31)C(=O)NC4 [Staurosporine] | 0.38 | 0.24 | 0.04 | −0.22 | −0.22 | −0.12 | 0.04 | −0.09 | 0.40 | 0.22 | 0.18 | 0.15 | 0.19 | −0.12 | 0.12 | 0.04 | 0.62 |  |  |  |  |
| CC(C)(C)C(=O)Oc1ccc(S(=O)(=O)Nc2ccccc2C(=O)NCC(=O)O)cc1 [compound 5046] | 0.51 | 0.23 | 0.80 | 0.22 | −0.07 |  | −0.1 | −0.38 | 0.36 | 0.40 | 0.51 | 0.11 | 0.12 | −0.10 |  |  | −0.25 | 0.40 | 0.05 | −0.25 |  |
| CN(C)CCCn1cc(C2=C(c3c[nH]c4ccccc34)C(=O)NC2=O)c2ccccc21 [GF109203X] | −0.40 |  | −0.40 | 0.48 | 0.22 | 0.27 |  | −0.05 | 0.27 | 0.23 | 0.92 | 0.24 | 0.16 | 0.09 | 0.04 | 0.40 | −0.28 | 0.82 | 0.41 | 0.21 | logarithmic value of ratio of IC40 values [5, 22]: 0.27 |
| Nc1nc2nc[nH]c2c(=S)[nH]1 [6-TG, 6-thioguanine] | −0.30 | −0.22 | −0.12 | 0.46 | 0.36 | 0.14 | −0.25 | 0.20 | 0.00 |  | 0.18 | 0.69 | 0.38 | 0.00 | 0.00 | 0.00 | 0.46 | 1.16 | 0.20 | 0.03 | logarithmic value of ratio of IC40 values [5, 22]: −0.05 |
